The values that follow are results of earlier work, collected in patent US20260054267A1, “PRODUCTION OF ENCAPSULATED NANOPARTICLES AT COMMERCIAL SCALE” (ICEUTICA PTY LTD., priority 2009, published 2026).

For the data set the following is noted: slowly absorbed by the body.

`Cc1cnc(NC(=O)C2=C(O)c3ccccc3S(=O)(=O)N2C)s1` [Meloxicam]: the Tmax was 4 to 5 h.

As usually defined, the Tmax is the time at which the peak concentration occurs.
